Measurements: PMC2754381 (Biochemistry, 2009)

Target: MtOMPDC (wildtype OMPDC from Methanothermobacter thermautotrophicus) (Methanothermobacter thermautotrophicus, UniProt O26232)
Assay: OMP decarboxylation followed at […] nm
Format: biochemical

Sequence of MtOMPDC (wildtype OMPDC from Methanothermobacter thermautotrophicus) (O26232 whole entry): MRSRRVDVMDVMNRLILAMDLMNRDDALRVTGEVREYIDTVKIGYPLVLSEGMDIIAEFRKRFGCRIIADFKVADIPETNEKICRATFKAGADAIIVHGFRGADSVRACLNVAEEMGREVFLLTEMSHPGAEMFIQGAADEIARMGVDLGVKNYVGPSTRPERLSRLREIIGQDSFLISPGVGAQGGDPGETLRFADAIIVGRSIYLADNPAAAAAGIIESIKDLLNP

SMILES: O=c1ccn([C@@H]2O[C@H](COP(=O)(O)O)[C@@H](O)[C@H]2O)c(=O)[nH]1 [UMP, uridine 5′-monophosphate]
- Ki: ~100 µM
